Earlier results on four compounds are cited in US20090233914A1, “Composition for treatment of nail infections” (Ondine International, Ltd., priority 2008, published 2009).

SMILES strings stand for the structures.

This data set deals with onychomycosis. The conditions noted are these: for side effects: human, in vivo, po.

For `OC(Cn1cncn1)(Cn1cncn1)c1ccc(F)cc1F` [Fluconazole], the side effects result was “severe side effects”. As for `COC1=CC(=O)C[C@@H](C)[C@]12Oc1c(Cl)c(OC)cc(OC)c1C2=O` [Griseofulvin], the side effects entry is listed as “undesired side effects”. Where the note is “oral medicine”, the “effectiveness of treatment of onychomycosis” value is “largely ineffectual”.

Turning to `CN(C/C=C/C#CC(C)(C)C)Cc1cccc2ccccc12` [Lamisil, terbinafine], the “nail clearing in patients for one year” value (oral, once a day for 90 days) is 70-80 % of patients.

Consider `CCC(C)n1ncn(-c2ccc(N3CCN(c4ccc(OCC5COC(Cn6cncn6)(c6ccc(Cl)cc6Cl)O5)cc4)CC3)cc2)c1=O` (centres unmarked) [itraconazole], for which the side effects entry was “somewhat severe”.
